Measurements from PubChem BioAssay AID1259407 (Chemical Carcinogenesis Research Information System (CCRIS), 2018).
Activity calls are given as the source filed them. How the calls were made is not given here.

System: CCRIS mutagenicity, Ames/micronucleus/aberration tests
Assay: CCRIS mutagenicity studies
Conditions: Test System: AMES SALMONELLA TYPHIMURIUM
[1] = Strain/Indicator: TA98, Metabolic Activation: NONE, Method: PREINCUBATION

| Compound | mutagenic call (Strain/Indicator: TA98, Metabolic Activation: HAMSTER, LIVER, S-9, AROCLOR 1254, Method: PREINCUBATION) | mutagenic call [1] | mutagenic call (Strain/Indicator: TA98, Metabolic Activation: RAT, LIVER, S-9, AROCLOR 1254, Method: PREINCUBATION) | mutagenic call (Strain/Indicator: TA100, Metabolic Activation: HAMSTER, LIVER, S-9, AROCLOR 1254, Method: PREINCUBATION) | mutagenic call (Strain/Indicator: TA100, Metabolic Activation: NONE, Method: PREINCUBATION) | mutagenic call (Strain/Indicator: TA100, Metabolic Activation: RAT, LIVER, S-9, AROCLOR 1254, Method: PREINCUBATION) | mutagenic call (Strain/Indicator: TA1535, Metabolic Activation: HAMSTER, LIVER, S-9, AROCLOR 1254, Method: PREINCUBATION) | mutagenic call (Strain/Indicator: TA1535, Metabolic Activation: NONE, Method: PREINCUBATION) | mutagenic call (Strain/Indicator: TA1535, Metabolic Activation: RAT, LIVER, S-9, AROCLOR 1254, Method: PREINCUBATION) | mutagenic call (Strain/Indicator: TA1537, Metabolic Activation: HAMSTER, LIVER, S-9, AROCLOR 1254, Method: PREINCUBATION) | mutagenic call (Strain/Indicator: TA1537, Metabolic Activation: NONE, Method: PREINCUBATION) | mutagenic call (Strain/Indicator: TA1537, Metabolic Activation: RAT, LIVER, S-9, AROCLOR 1254, Method: PREINCUBATION) | mutagenic call (Strain/Indicator: TA98, Metabolic Activation: RAT, LIVER, S-9, AROCLOR 1254, Method: STANDARD PLATE) |
| --- | --- | --- | --- | --- | --- | --- | --- | --- | --- | --- | --- | --- | --- |
| CCCCOCCOP(=O)(OCCOCCCC)OCCOCCCC | inactive; negative | inactive; negative | inactive; negative | inactive; negative | inactive; negative | inactive; negative | inactive; negative | inactive; negative | inactive; negative | inactive; negative | inactive; negative | inactive; negative |  |
| CCCNC(=O)C=Cc1ccc([N+](=O)[O-])o1 |  | active; positive |  |  |  |  |  |  |  |  |  |  |  |
| Cc1nc2cc(C)c3c(nc(N)n3C)c2nc1C |  |  |  |  |  |  |  |  |  |  |  |  | active; positive |
